This is an account of results in patent publication US20110071204A1, “PERCUTANEOUS ABSORPTION PREPARATION” (KYORIN PHARMACEUTICAL CO., LTD., priority 2005, published 2011).

The structures appear in SMILES notation.

Data set [1] concerns airway contraction induced by methacholine. Briefly: Airway contraction measuring method (Konzett & Rossler), methacholine-induced. It is filed as in vivo. As to conditions: guinea pig. The procedure: Male Std:Hartley guinea pigs (Japan SLC Inc., week of age at the time of use: 6 weeks of age, from 340.6 to 488.0 g in body weight) were anesthetized with urethane, and a canula was inserted into the trachea. The trachea canula was connected to a quantitative artificial ventilator, and under artificial respiration, a catheter was indwelled in the left jugular vein. Measurement of the airway contraction was carried out by the Konzett & Rossler method. Guinea pigs were subjected to artificial respiration at a ventilation of 4 ml/animal and a ventilation frequency of 70 times/minute. Changes in the ventilation pressure were measured by a transducer (UGO BASILE, BRONCHOSPASM TRANSDUCER 7020) connected to the sub-bypass of the trachea canula. By inserting a catheter into the jugular vein, imidafenacin was administered by continuous intravenous infusion (100 μl/kg/min). After 75 minutes of the start of administration of the agent liquid, methacholine (10 μg/kg) was intravenously administered to induce airway contraction. The airway contraction inhibitory activity was evaluated using peak height of the airway contraction induced by methacholine as the index.
In this connection, the blood concentration measurement was carried out by LC/MS/MS using blood plasma.

The test system of data set [2] is bladder contraction induced by methacholine. It is filed as in vivo. As to conditions: guinea pig. The source says: Male Std:Hartley guinea pigs (Japan SLC Inc., week of age at the time of use: 6 weeks of age, from 340.6 to 488.0 g in body weight) were anesthetized with urethane. The abdominal region was subjected to median incision, and then both sides of ureters were ligated in order to prevent inflow of urine from the kidney to the bladder. After ligation of the bladder cervix, a catheter for intravesical pressure measurement use was inserted from the bladder apex and fixed by ligation. Thereafter, in order to measure intravesical pressure, 1 ml of physiological saline was injected into the bladder. Next, a catheter was indwelled in the left jugular vein. The intravesical pressure was measured via an amplifier for strain pressure use (Nihon Kohden Corporation, CARRIER ANPLIFIER AP-601G) by connecting the catheter for intravesical pressure measuring use to a pressure transducer (Nihon Kohden Corporation, LIFE KIT DX-100). By inserting a catheter into the jugular vein, imidafenacin was administered by continuous intravenous infusion (100 μl/kg/min). After 75 minutes of the commencement of administration of the agent liquid, methacholine (10 μg/kg) was intravenously administered to induce bladder contraction. The bladder contraction inhibitory activity was evaluated using peak height of the bladder contraction induced by methacholine as the index. […]

[3] abbreviates: continuous intravenous infusion, methacholine 10 μg/kg after 75 minutes.

For `Cc1nccn1CCC(C(N)=O)(c1ccccc1)c1ccccc1` [imidafenacin, 4-(2-methyl-1-imidazolyl)-2,2-diphenylbutylamide], in data set [1] (setting [3]), the “ID50, airway contraction inhibitory activity” value came out at 0.061 µg/kg/min. In data set [1] (plasma, LC/MS/MS), the “blood concentration at around the ID50 value (airway contraction)” value is on record as “about 1 ng/ml”. For the same compound, the “ID50, bladder contraction inhibitory activity” value in data set [2] (setting [3]) worked out at 0.064 µg/kg/min. Moreover, in data set [2] (male, Hartley, in vivo), the “blood concentration at around the ID50 value (intravesical pressure)” value is “about 1 ng/ml”.
